This passage reports IC50 results from patent publication US8741934B2, “Inhibitors of ion channels” (Pfizer Limited, priority 2007, dated 2014).

A value given as a limit tells only on which side of the number the result lay.

The target of this assay is T1, hSCN3A sodium channels (Homo sapiens, UniProt Q9NY46).
T1 construct: expressed in transfected cells
Nature of the assay: hSCN3A electrophysiology, whole-cell patch-clamp or PatchXpress 7000, estimated IC-50 (Table B). Format: cell-based. Particulars: estimated IC-50; hSCN3A cells, whole-cell patch-clamp or PatchXpress 7000; read-out: SCN3A EIC-50. The gist of the method:
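Stably transfected HEK cells, whole-cell voltage clamp at 22-24° C, manual or PatchXpress 7000. Cells held at empirically determined inactivation V1/2; current evoked by 20 msec step to 0 mV after 8 sec prepulse to V1/2.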

T1 sequence (Q9NY46 whole entry): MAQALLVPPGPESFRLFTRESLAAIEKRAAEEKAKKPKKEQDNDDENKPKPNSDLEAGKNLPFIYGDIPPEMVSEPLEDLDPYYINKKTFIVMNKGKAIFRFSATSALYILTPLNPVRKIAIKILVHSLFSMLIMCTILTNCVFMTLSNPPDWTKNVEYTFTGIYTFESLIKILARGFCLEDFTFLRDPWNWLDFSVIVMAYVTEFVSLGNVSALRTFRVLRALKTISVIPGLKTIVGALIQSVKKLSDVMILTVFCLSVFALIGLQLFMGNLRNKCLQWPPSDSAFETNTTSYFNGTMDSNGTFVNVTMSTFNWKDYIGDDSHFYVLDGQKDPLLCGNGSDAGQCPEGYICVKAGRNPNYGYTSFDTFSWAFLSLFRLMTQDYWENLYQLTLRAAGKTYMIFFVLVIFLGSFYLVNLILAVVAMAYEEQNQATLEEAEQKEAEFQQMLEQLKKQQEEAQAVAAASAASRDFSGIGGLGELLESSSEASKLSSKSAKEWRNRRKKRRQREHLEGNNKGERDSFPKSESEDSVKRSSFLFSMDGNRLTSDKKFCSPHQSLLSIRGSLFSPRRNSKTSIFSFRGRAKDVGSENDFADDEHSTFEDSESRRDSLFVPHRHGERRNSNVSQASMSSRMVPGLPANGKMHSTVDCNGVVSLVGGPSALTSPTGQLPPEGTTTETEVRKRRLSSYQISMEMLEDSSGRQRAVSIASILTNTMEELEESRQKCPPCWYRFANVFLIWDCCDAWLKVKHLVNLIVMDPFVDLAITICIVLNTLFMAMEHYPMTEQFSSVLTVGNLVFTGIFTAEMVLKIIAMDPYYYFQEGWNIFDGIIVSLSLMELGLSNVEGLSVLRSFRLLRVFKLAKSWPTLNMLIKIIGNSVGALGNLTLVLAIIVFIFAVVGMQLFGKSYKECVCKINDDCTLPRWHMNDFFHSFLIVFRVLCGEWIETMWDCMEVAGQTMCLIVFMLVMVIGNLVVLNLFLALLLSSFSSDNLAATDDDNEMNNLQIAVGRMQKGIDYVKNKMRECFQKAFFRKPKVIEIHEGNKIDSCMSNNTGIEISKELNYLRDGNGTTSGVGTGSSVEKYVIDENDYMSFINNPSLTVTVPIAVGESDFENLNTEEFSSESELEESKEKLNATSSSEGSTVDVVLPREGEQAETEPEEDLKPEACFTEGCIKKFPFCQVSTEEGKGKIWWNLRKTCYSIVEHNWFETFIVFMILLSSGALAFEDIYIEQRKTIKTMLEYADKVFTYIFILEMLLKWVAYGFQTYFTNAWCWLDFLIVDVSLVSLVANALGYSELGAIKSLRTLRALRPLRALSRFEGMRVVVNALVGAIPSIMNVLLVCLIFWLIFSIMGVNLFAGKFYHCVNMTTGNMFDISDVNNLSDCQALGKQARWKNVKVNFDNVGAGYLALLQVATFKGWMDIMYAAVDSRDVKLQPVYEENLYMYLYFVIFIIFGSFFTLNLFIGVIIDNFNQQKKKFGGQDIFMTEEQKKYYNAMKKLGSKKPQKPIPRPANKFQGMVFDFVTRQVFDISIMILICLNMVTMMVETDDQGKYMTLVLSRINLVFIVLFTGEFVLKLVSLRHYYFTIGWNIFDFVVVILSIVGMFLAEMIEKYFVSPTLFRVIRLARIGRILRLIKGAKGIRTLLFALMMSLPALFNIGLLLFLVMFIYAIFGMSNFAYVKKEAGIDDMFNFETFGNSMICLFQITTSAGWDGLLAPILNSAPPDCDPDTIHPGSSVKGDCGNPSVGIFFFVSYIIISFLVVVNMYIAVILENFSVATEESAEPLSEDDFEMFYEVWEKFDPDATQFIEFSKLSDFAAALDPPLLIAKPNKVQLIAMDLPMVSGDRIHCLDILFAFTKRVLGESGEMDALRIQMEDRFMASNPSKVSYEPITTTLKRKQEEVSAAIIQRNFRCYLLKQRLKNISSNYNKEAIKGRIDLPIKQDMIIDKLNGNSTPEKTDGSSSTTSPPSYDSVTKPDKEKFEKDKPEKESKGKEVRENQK

Regarding `CC(NC(=O)c1ccc(S(=O)(=O)Nc2ncc(Cl)s2)cc1)c1ccc(C(F)(F)F)cc1` (stereo not drawn) [Example 44, 4-{[(5-Chloro-1,3-thiazol-2-yl)amino]sulfonyl}-N-{1-[4-(trifluoromethyl)phenyl]ethyl}benzamide], the IC50 is 0.27 µM.

On to `O=C(NCc1ccc(OC(F)(F)F)cc1)c1ccc(S(=O)(=O)Nc2ncc(Cl)s2)cc1` [Example 45, 4-{[(5-Chloro-1,3-thiazol-2-yl)amino]sulfonyl}-N-[4-(trifluoromethoxy)benzyl]benzamide], for which the IC50 was 0.07 µM.

As to `O=C(c1ccc(S(=O)(=O)Nc2nccs2)cc1)N1CCSCC1c1ccccc1Cl` (stereo not drawn) [Example 46, 4-{[3-(2-Chlorophenyl)thiomorpholin-4-yl]carbonyl}-N-1,3-thiazol-2-ylbenzenesulfonamide], the IC50 is 1.55 µM.

Take `O=C(c1ccc(S(=O)(=O)Nc2nccs2)cc1)N1CCCC(Cc2cccc(F)c2)C1` (stereo not drawn) [Example 47, 4-{[3-(3-Fluorobenzyl)piperidin-1-yl]carbonyl}-N-1,3-thiazol-2-ylbenzenesulfonamide]: the IC50 is 0.92 µM.

With `O=C(c1ccc(S(=O)(=O)Nc2nccs2)cc1)N1CCOC[C@H]1c1ccccc1` [Example 48, 4-{[(3R)-3-phenylmorpholin-4-yl]carbonyl}-N-1,3-thiazol-2-ylbenzenesulfonamide], the IC50 is more than 1 µM.

Regarding `C[C@H]1CN(C(=O)c2ccc(S(=O)(=O)Nc3nccs3)cc2)C[C@@H]1COc1ccccc1` [Example 49, 4-{[(3R,4R)-3-methyl-4-(phenoxymethyl)pyrrolidin-1-yl]carbonyl}-N-1,3-thiazol-2-ylbenzenesulfonamide], the IC50 is 1.15 µM.

`Cc1cccc(OC2CCCN(C(=O)c3ccc(S(=O)(=O)Nc4nccs4)cc3)C2)c1` (stereo not drawn) [Example 51, 4-{[3-(3-Methylphenoxy)piperidin-1-yl]carbonyl}-N-1,3-thiazol-2-ylbenzenesulfonamide]: the IC50 was 6.58 µM.

Turning to `O=C(c1ccc(S(=O)(=O)Nc2nccs2)cc1)N1CCO[C@H]2Cc3ccccc3[C@H]21` [Example 52, 4-[(4aR,9aS)-2,3,9,9a-tetrahydroindeno[2,1-b][1,4]oxazin-4(4aH)-ylcarbonyl]-N-1,3-thiazol-2-ylbenzenesulfonamide], the IC50 is 2.91 µM.

As to `O=C(c1ccc(S(=O)(=O)Nc2nccs2)cc1)N1CCO[C@@H]2Cc3ccccc3[C@@H]21` [Example 53, 4-[(4aS,9aR)-2,3,9,9a-tetrahydroindeno[2,1-b][1,4]oxazin-4(4aH)-ylcarbonyl]-N-1,3-thiazol-2-ylbenzenesulfonamide], the IC50 was 2.86 µM.

In the case of `O=C(NCc1ccc(F)c(C2CC2)c1)c1ccc(S(=O)(=O)Nc2nccs2)cc1` [Example 54, N-(3-cyclopropyl-4-fluorobenzyl)-4-[(1,3-thiazol-2-ylamino)sulfonyl]benzamide], the IC50 was 0.12 µM.

With `N#Cc1cc(CNC(=O)c2ccc(S(=O)(=O)Nc3nccs3)cc2)ccc1F` [Example 55, N-(3-cyano-4-fluorobenzyl)-4-[(1,3-thiazol-2-ylamino)sulfonyl]benzamide], the IC50 is 1.41 µM.

Turning to `O=C(NCc1cccc(-n2cccn2)c1)c1ccc(S(=O)(=O)Nc2nccs2)cc1` [Example 59, N-[3-(1H-pyrazol-1-yl)benzyl]-4-[(1,3-thiazol-2-ylamino)sulfonyl]benzamide], the IC50 was 1.69 µM.

In the case of `O=C(NCc1ccc(-n2cccn2)cc1)c1ccc(S(=O)(=O)Nc2nccs2)cc1` [Example 60, N-[4-(1H-pyrazol-1-yl)benzyl]-4-[(1,3-thiazol-2-ylamino)sulfonyl]benzamide], the IC50 is 1.5 µM.

Regarding `Cc1c(Cl)cccc1CNC(=O)c1ccc(S(=O)(=O)Nc2nccs2)cc1` [Example 61, N-(3-chloro-2-methylbenzyl)-4-[(1,3-thiazol-2-ylamino)sulfonyl]benzamide], the IC50 was 0.16 µM.

`Cc1ccc(CNC(=O)c2ccc(S(=O)(=O)Nc3nccs3)cc2)cc1F` [Example 62, N-(3-fluoro-4-methylbenzyl)-4-[(1,3-thiazol-2-ylamino)sulfonyl]benzamide]: the IC50 was 1.02 µM.

With `O=C(NCc1cccc(OC(F)F)c1)c1ccc(S(=O)(=O)Nc2nccs2)cc1` [Example 63, N-[3-(difluoromethoxy)benzyl]-4-[(1,3-thiazol-2-ylamino)sulfonyl]benzamide], the IC50 is 1.09 µM.

In the case of `Cc1ccc(Cl)cc1CNC(=O)c1ccc(S(=O)(=O)Nc2nccs2)cc1` [Example 64, N-(5-chloro-2-methylbenzyl)-4-[(1,3-thiazol-2-ylamino)sulfonyl]benzamide], the IC50 is 0.45 µM.

As for `O=C(NCc1cc(F)cc(F)c1F)c1ccc(S(=O)(=O)Nc2nccs2)cc1` [Example 65, 4-[(1,3-Thiazol-2-ylamino)sulfonyl]-N-(2,3,5-trifluorobenzyl)benzamide], the IC50 is 3.84 µM.

As to `O=C(NCCc1cccc(Cl)c1)c1ccc(S(=O)(=O)Nc2nccs2)cc1` [Example 70, N-[2-(3-chlorophenyl)ethyl]-4-[(1,3-thiazol-2-ylamino)sulfonyl]benzamide], the IC50 was more than 0.3 µM.

Regarding `O=C(NCCc1ccc(Cl)cc1)c1ccc(S(=O)(=O)Nc2nccs2)cc1` [Example 72, N-[2-(4-chlorophenyl)ethyl]-4-[(1,3-thiazol-2-ylamino)sulfonyl]benzamide], the IC50 is 0.66 µM.

Regarding `O=C(NCc1cccc(OC(F)(F)F)c1)c1ccc(S(=O)(=O)Nc2nccs2)cc1` [Example 73, 4-[(1,3-Thiazol-2-ylamino)sulfonyl]-N-[3-(trifluoromethoxy)benzyl]benzamide], the IC50 was 0.18 µM.

Consider `O=C(NCCc1cccc(C(F)(F)F)c1)c1ccc(S(=O)(=O)Nc2nccs2)cc1` [Example 74, 4-[(1,3-Thiazol-2-ylamino)sulfonyl]-N-{2-[3-(trifluoromethyl)phenyl]ethyl}benzamide], for which the IC50 was 0.54 µM.

In the case of `O=C(NCCc1cccc(F)c1)c1ccc(S(=O)(=O)Nc2nccs2)cc1` [Example 75, N-[2-(3-fluorophenyl)ethyl]-4-[(1,3-thiazol-2-ylamino)sulfonyl]benzamide], the IC50 is more than 0.3 µM.

As for `O=C(NCc1ccccc1OC(F)(F)F)c1ccc(S(=O)(=O)Nc2nccs2)cc1` [Example 78, 4-[(1,3-Thiazol-2-ylamino)sulfonyl]-N-[2-(trifluoromethoxy)benzyl]benzamide], the IC50 was 1.63 µM.

Consider `O=C(NCc1ccc(F)cc1C(F)(F)F)c1ccc(S(=O)(=O)Nc2nccs2)cc1` [Example 80, N-[4-fluoro-2-(trifluoromethyl)benzyl]-4-[(1,3-thiazol-2-ylamino)sulfonyl]benzamide], for which the IC50 is more than 0.1 µM.

In the case of `O=C(NCc1cc(F)cc(F)c1)c1ccc(S(=O)(=O)Nc2nccs2)cc1` [Example 83, N-(3,5-difluorobenzyl)-4-[(1,3-thiazol-2-ylamino)sulfonyl]benzamide], the IC50 is 0.62 µM.

With `O=C(NCc1ccccc1C(F)(F)F)c1ccc(S(=O)(=O)Nc2nccs2)cc1` [Example 88, 4-[(1,3-Thiazol-2-ylamino)sulfonyl]-N-[2-(trifluoromethyl)benzyl]benzamide], the IC50 is more than 0.1 µM.

`O=C(NCc1cccc(F)c1)c1ccc(S(=O)(=O)Nc2nccs2)cc1` [Example 90, N-(3-fluorobenzyl)-4-[(1,3-thiazol-2-ylamino)sulfonyl]benzamide]: the IC50 is 1.66 µM.

On to `Cc1ccccc1CNC(=O)c1ccc(S(=O)(=O)Nc2nccs2)cc1` [Example 91, N-(2-methylbenzyl)-4-[(1,3-thiazol-2-ylamino)sulfonyl]benzamide], for which the IC50 is 1.22 µM.

Take `O=C(NCc1ccc(F)cc1)c1ccc(S(=O)(=O)Nc2nccs2)cc1` [Example 92, N-(4-fluorobenzyl)-4-[(1,3-thiazol-2-ylamino)sulfonyl]benzamide]: the IC50 was 0.58 µM.

Take `O=C(NCc1ccc(Cl)cc1F)c1ccc(S(=O)(=O)Nc2nccs2)cc1` [Example 93, N-(4-chloro-2-fluorobenzyl)-4-[(1,3-thiazol-2-ylamino)sulfonyl]benzamide]: the IC50 was 0.46 µM.

Regarding `O=C(NCc1ccc(F)cc1F)c1ccc(S(=O)(=O)Nc2nccs2)cc1` [Example 94, N-(2,4-difluorobenzyl)-4-[(1,3-thiazol-2-ylamino)sulfonyl]benzamide], the IC50 is more than 0.1 µM.

For the compound `O=C(NCc1ccc(F)cc1Cl)c1ccc(S(=O)(=O)Nc2nccs2)cc1` [Example 95, N-(2-chloro-4-fluorobenzyl)-4-[(1,3-thiazol-2-ylamino)sulfonyl]benzamide], the IC50 was more than 0.1 µM.

Regarding `O=C(NCCc1ccccc1Cl)c1ccc(S(=O)(=O)Nc2nccs2)cc1` [Example 96, N-[2-(2-chlorophenyl)ethyl]-4-[(1,3-thiazol-2-ylamino)sulfonyl]benzamide], the IC50 is 0.91 µM.

Take `O=C(NCc1cccc(Cl)c1Cl)c1ccc(S(=O)(=O)Nc2nccs2)cc1` [Example 97, N-(2,3-dichlorobenzyl)-4-[(1,3-thiazol-2-ylamino)sulfonyl]benzamide]: the IC50 was 0.64 µM.

`O=C(NCCc1ccc(C(F)(F)F)cc1)c1ccc(S(=O)(=O)Nc2nccs2)cc1` [Example 101, 4-[(1,3-Thiazol-2-ylamino)sulfonyl]-N-{2-[4-(trifluoromethyl)phenyl]ethyl}benzamide]: the IC50 was 0.57 µM.

Consider `O=C(Nc1nccc2cccnc12)c1ccc(S(=O)(=O)Nc2nccs2)cc1` [Example 116, N-1,7-naphthyridin-8-yl-4-[(1,3-thiazol-2-ylamino)sulfonyl]benzamide], for which the IC50 is more than 0.1 µM.

Consider `O=C(Nc1nccc2ccccc12)c1ccc(S(=O)(=O)Nc2nccs2)cc1` [Example 117, N-isoquinolin-1-yl-4-[(1,3-thiazol-2-ylamino)sulfonyl]benzamide], for which the IC50 is 12.7 µM.

Turning to `CC(NC(=O)c1ccc(S(=O)(=O)Nc2nccs2)cc1)c1ccc(C(F)(F)F)cc1` (stereo not drawn) [Example 118, 4-[(1,3-Thiazol-2-ylamino)sulfonyl]-N-{1-[4-(trifluoromethyl)phenyl]ethyl}benzamide], the IC50 is 0.76 µM.
